Laboratory results published in ChEMBL document CHEMBL3045835, “Comparative study of conventional and microwave-assisted synthesis of some Schiff bases and their potential as antimicrobial agents” (2012).
Values after ≈ are worked out from the molar mass of the structure shown.

Key:
Assay type in all cases: functional
[1] = tested on: Pseudomonas fluorescens; test: Antibacterial activity against Pseudomonas fluorescens MTCC 2421 after 24 hr by broth dilution method; details: MTCC 2421, 24 h
[2] = tested on: Bacillus pumilus; test: Antibacterial activity against Bacillus pumilus MTCC 1456 after 24 hr by broth dilution method; details: MTCC 1456, 24 h
[3] = tested on: Escherichia coli; test: Antibacterial activity against Escherichia coli MTCC 1573 at 1000 ug/ml after 18 hr by cup-plate method; details: MTCC 1573, 18 h, read-out: DIZ
[4] = tested on: Aspergillus niger; test: Antifungal activity against Aspergillus niger MTCC 2546 at 100 ug/ml after 18 hr by cup-plate method; details: MTCC 2546, 18 h, read-out: DIZ
[5] = tested on: Bacillus pumilus; test: Antibacterial activity against Bacillus pumilus MTCC 1456 at 1500 ug/ml after 18 hr by cup-plate method; details: MTCC 1456, 18 h, read-out: DIZ
[6] = tested on: Staphylococcus aureus; test: Antibacterial activity against Staphylococcus aureus MTCC 1430 after 24 hr by broth dilution method; details: MTCC 1430, 24 h
[7] = tested on: Penicillium chrysogenum; test: Antifungal activity against Penicillium chrysogenum MTCC 161 at 1000 ug/ml after 18 hr by cup-plate method; details: MTCC 161, 18 h, read-out: DIZ
[8] = tested on: Escherichia coli; test: Antibacterial activity against Escherichia coli MTCC 1573 at 100 ug/ml after 18 hr by cup-plate method; details: MTCC 1573, 18 h, read-out: DIZ
[9] = tested on: Staphylococcus aureus; test: Antibacterial activity against Staphylococcus aureus MTCC 1430 at 200 ug/ml after 18 hr by cup-plate method; details: MTCC 1430, 18 h, read-out: DIZ
[10] = tested on: Pseudomonas aeruginosa; test: Antibacterial activity against Pseudomonas aeruginosa MTCC 424 after 24 hr by broth dilution method; details: MTCC 424, 24 h
[11] = tested on: Pseudomonas aeruginosa; test: Antibacterial activity against Pseudomonas aeruginosa MTCC 424 at 500 ug/ml after 18 hr by cup-plate method; details: MTCC 424, 18 h, read-out: DIZ
[12] = tested on: Aspergillus niger; test: Antifungal activity against Aspergillus niger MTCC 2546 after 24 hr by broth dilution method; details: MTCC 2546, 24 h
[13] = tested on: Bacillus pumilus; test: Antibacterial activity against Bacillus pumilus MTCC 1456 at 500 ug/ml after 18 hr by cup-plate method; details: MTCC 1456, 18 h, read-out: DIZ
[14] = tested on: Aspergillus niger; test: Antifungal activity against Aspergillus niger MTCC 2546 at 500 ug/ml after 18 hr by cup-plate method; details: MTCC 2546, 18 h, read-out: DIZ
[15] = tested on: Penicillium chrysogenum; test: Antifungal activity against Penicillium chrysogenum MTCC 161 at 500 ug/ml after 18 hr by cup-plate method; details: MTCC 161, 18 h, read-out: DIZ
[16] = tested on: Escherichia coli; test: Antibacterial activity against Escherichia coli MTCC 1573 at 500 ug/ml after 18 hr by cup-plate method; details: MTCC 1573, 18 h, read-out: DIZ
[17] = tested on: Pseudomonas fluorescens; test: Antibacterial activity against Pseudomonas fluorescens MTCC 2421 at 1000 ug/ml after 18 hr by cup-plate method; details: MTCC 2421, 18 h, read-out: DIZ
[18] = tested on: Micrococcus luteus; test: Antibacterial activity against Micrococcus luteus MTCC 1538 after 24 hr by broth dilution method; details: MTCC 1538, 24 h
[19] = tested on: Staphylococcus aureus; test: Antibacterial activity against Staphylococcus aureus MTCC 1430 at 100 ug/ml after 18 hr by cup-plate method; details: MTCC 1430, 18 h, read-out: DIZ
[20] = tested on: Aspergillus niger; test: Antifungal activity against Aspergillus niger MTCC 2546 at 1000 ug/ml after 18 hr by cup-plate method; details: MTCC 2546, 18 h, read-out: DIZ
[21] = tested on: Aspergillus niger; test: Antifungal activity against Aspergillus niger MTCC 2546 at 200 ug/ml after 18 hr by cup-plate method; details: MTCC 2546, 18 h, read-out: DIZ
[22] = tested on: Staphylococcus aureus; test: Antibacterial activity against Staphylococcus aureus MTCC 1430 at 1000 ug/ml after 18 hr by cup-plate method; details: MTCC 1430, 18 h, read-out: DIZ
[23] = tested on: Bacillus subtilis; test: Antibacterial activity against Bacillus subtilis MTCC 441 after 24 hr by broth dilution method; details: MTCC 441, 24 h
[24] = tested on: Staphylococcus aureus; test: Antibacterial activity against Staphylococcus aureus MTCC 1430 at 500 ug/ml after 18 hr by cup-plate method; details: MTCC 1430, 18 h, read-out: DIZ
[25] = tested on: Micrococcus luteus; test: Antibacterial activity against Micrococcus luteus MTCC 1538 at 200 ug/ml after 18 hr by cup-plate method; details: MTCC 1538, 18 h, read-out: DIZ
[26] = tested on: Bacillus subtilis; test: Antibacterial activity against Bacillus subtilis MTCC 441 at 1500 ug/ml after 18 hr by cup plate method; details: MTCC 441, 18 h, read-out: DIZ
[27] = tested on: Pseudomonas aeruginosa; test: Antibacterial activity against Pseudomonas aeruginosa MTCC 424 at 1500 ug/ml after 18 hr by cup-plate method; details: MTCC 424, 18 h, read-out: DIZ

Compound: Cc1cc(/N=C/c2cccc3ccccc23)no1
- MIC [1]: 300 µg/mL (≈ 1270 µM)
- MIC [2]: 300 µg/mL (≈ 1270 µM)
- zone of inhibition at 1000 µg/mL [3]: 15 mm
- zone of inhibition at 100 µg/mL [4]: 13 mm
- zone of inhibition at 1500 µg/mL [5]: 18 mm
- MIC [6]: 400 µg/mL (≈ 1690 µM)
- zone of inhibition at 1000 µg/mL [7]: 19 mm
- zone of inhibition at 100 µg/mL [8]: 12 mm
- zone of inhibition at 200 µg/mL [9]: 14 mm
- MIC [10]: 300 µg/mL (≈ 1270 µM)
- zone of inhibition at 500 µg/mL [11]: 17 mm
- MIC [12]: 300 µg/mL (≈ 1270 µM)
- zone of inhibition at 500 µg/mL [13]: 16 mm
- zone of inhibition at 500 µg/mL [14]: 19 mm
- zone of inhibition at 500 µg/mL [15]: 18 mm
- zone of inhibition at 500 µg/mL [16]: 14 mm
- zone of inhibition at 1000 µg/mL [17]: 18 mm
- MIC [18]: 200 µg/mL (≈ 846 µM)
- zone of inhibition at 100 µg/mL [19]: 13 mm
- zone of inhibition at 1000 µg/mL [20]: 20 mm
- zone of inhibition at 200 µg/mL [21]: 18 mm
- zone of inhibition at 1000 µg/mL [22]: 16 mm
- MIC [23]: 300 µg/mL (≈ 1270 µM)
- zone of inhibition at 500 µg/mL [24]: 15 mm
- zone of inhibition at 200 µg/mL [25]: 18 mm
- zone of inhibition at 1500 µg/mL [26]: 20 mm
- zone of inhibition at 1500 µg/mL [27]: 20 mm
